We go through one compound from article PMC5712521, “Dendrogenin A drives LXR to trigger lethal autophagy in cancers” (Nature Communications, 2017).

For the test, the system named is HL60 tumors. The experiment in a line: Subcutaneous HL60 tumor xenograft. The format is in vivo, mice. As to the method: Exponentially growing cells were harvested, washed twice in PBS then resuspended in PBS. SKMEL-28, shSKMEL-28 clones (5 × 10^6 cells) and B16F10 (3 × 10^5) cells were injected subcutaneously (s.c.) into the flank of nude mice. HL60, KG1 and shKG1-clones (5 × 10^6) were inoculated s.c. into the flanks of NOD/SCID mice. When tumors were palpable, animals (n = 10–20 mice per group, as indicated) were randomized to receive either DDA (20 mg/kg) intraperitoneally (i.p.) or 40 mg/kg by oral gavage (p.o), once a day, or vehicle solvent for the indicated time. Animals were examined daily and body weights were measured twice a week. In all experiments, tumor volume was determined by direct measurement with a caliper and was calculated using the formula (width^2 × length)/2. At the end of experiments, mice were sacrificed and tumors were excised and divided for intra-tumoral DDA quantification, immunoblotting, or immunohistochemistry analyses. […]
(n=16- 20 mice/group) engrafted with KG1 cells or HL60 cells were treated with DDA (20 mg/kg/day, i.p.) or solvent vehicle (control). Tumor growth was monitored over time and was analyzed for significance using repeated measures ANOVA (***P<0.001). The mean tumor volumes ± SEM are shown. e Average tumor weight at the end of the experiments in d. *P<0.5, **P<0.01, ANOVA. f Mean tumor volumes measured at the end of the experiments for HL60 and KG1 graf ted into NOD/SCID or NMRI-Fo x1 -nude mice treated with DDA (40 mg/kg/day, p.o. or 20 mg/kg/day, i.p.) or solvent vehicle (control) (n=10- 20 mice per group). Values represent the means ± S.E.M. (**P<0.01, ***P<0.001, ANOVA). g Histochemical analysis of the expression of LC3 and P62 in HL60 tumor sections isolated from NOD/SCID mice treated or not with DDA (20 mg/kg/day, i.p.). h Quantification of LC3 punctate cells in shCTRL and shLXRβ KG1 tumors. i Quantification of DDA levels in tumors 4 h after the final administration of DDA. j Box plot of TCGA RNA-seq data from patients with melanoma showing that LXRβ is the predominant LXR isoform expressed. […]

On to `CC(C)CCC[C@@H](C)[C@H]1CC[C@H]2[C@@H]3C[C@@H](NCCc4cnc[nH]4)[C@@]4(O)C[C@@H](O)CC[C@]4(C)[C@H]3CC[C@]12C` [DDA, Dendrogenin A], for which the “Tumor volume at the end of the experiment” value is, setting by setting: (NMRI-Fox1-nude mice, DDA i.p. 20mg/kg/d (control 726±81)) 203±72 mm3; (NOD/SCID mice, DDA i.p. 20mg/kg/d (control 2348±204)) 880±101 mm3; (NOD/SCID mice, DDA p.o. 40mg/kg/d (control 2348±204)) 812±66 mm3.
